Data taken from the supplement of paper PMC13380429.

What was measured:
Settings in all cases: 72 h
Caco-2 [1] = test: cell viability relative to DMSO; higher = less toxic
Calu-3 [2] = test: as above
HepG2 [3] = test: as above
U2OS [4] = test: as above
Vero E6 [5] = test: as above
Caco-2 [6] = test: relative viability EC50 (midpoint between 100% and the lowest measured viability); higher = less toxic
Calu-3 [7] = test: as above
HepG2 [8] = test: as above
U2OS [9] = test: as above
Vero E6 [10] = test: as above
Caco-2 [11] = test: drug sensitivity score (DSS) for viability; higher = more toxic; extreme values may be limits of the assay
Calu-3 [12] = test: as above
HepG2 [13] = test: as above
U2OS [14] = test: as above
Vero E6 [15] = test: as above

| SMILES | cell viability (Caco-2 [1]; 1 nM) [%] | cell viability (Caco-2 [1]; 10 nM) [%] | cell viability (Caco-2 [1]; 100 nM) [%] | cell viability (Caco-2 [1]; 1000 nM) [%] | cell viability (Caco-2 [1]; 10000 nM) [%] | cell viability (Calu-3 [2]; 1 nM) [%] | cell viability (Calu-3 [2]; 10 nM) [%] | cell viability (Calu-3 [2]; 100 nM) [%] | cell viability (Calu-3 [2]; 1000 nM) [%] | cell viability (Calu-3 [2]; 10000 nM) [%] | cell viability (HepG2 [3]; 1 nM) [%] | cell viability (HepG2 [3]; 10 nM) [%] | cell viability (HepG2 [3]; 100 nM) [%] | cell viability (HepG2 [3]; 1000 nM) [%] | cell viability (HepG2 [3]; 10000 nM) [%] | cell viability (U2OS [4]; 1 nM) [%] | cell viability (U2OS [4]; 10 nM) [%] | cell viability (U2OS [4]; 100 nM) [%] | cell viability (U2OS [4]; 1000 nM) [%] | cell viability (U2OS [4]; 10000 nM) [%] | cell viability (Vero E6 [5]; 1 nM) [%] | cell viability (Vero E6 [5]; 10 nM) [%] | cell viability (Vero E6 [5]; 100 nM) [%] | cell viability (Vero E6 [5]; 1000 nM) [%] | cell viability (Vero E6 [5]; 10000 nM) [%] | relative viability EC50 (Caco-2 [6]) [µM] | relative viability EC50 (Calu-3 [7]) [µM] | relative viability EC50 (HepG2 [8]) [µM] | relative viability EC50 (U2OS [9]) [µM] | relative viability EC50 (Vero E6 [10]) [µM] | drug sensitivity score (Caco-2 [11]) | drug sensitivity score (Calu-3 [12]) | drug sensitivity score (HepG2 [13]) | drug sensitivity score (U2OS [14]) | drug sensitivity score (Vero E6 [15]) |
| --- | --- | --- | --- | --- | --- | --- | --- | --- | --- | --- | --- | --- | --- | --- | --- | --- | --- | --- | --- | --- | --- | --- | --- | --- | --- | --- | --- | --- | --- | --- | --- | --- | --- | --- | --- |
| C[C@H]1O[C@@H](O[C@H]2CC[C@@]3(C)[C@H](CC[C@@H]4[C@@H]3C[C@@H](O)[C@]3(C)[C@@H](C5=CC(=O)OC5)CC[C@]43O)C2)C[C@H](O)[C@@H]1O[C@H]1C[C@H](O)[C@H](O[C@H]2C[C@H](O)[C@H](O[C@@H]3O[C@H](CO)[C@@H](O)[C@H](O)[C@H]3O)[C@@H](C)O2)[C@@H](C)O1 [deslanoside] | 98.3 | 95 | 69.8 | 18.6 | 20 | 102 | 97.2 | 94.2 | 28.1 | 19.1 | 89.4 | 92.9 | 76.2 | 25.5 | 6.7 | 101 | 98.9 | 93.2 | 5.9 | 10.9 | 96.7 | 94.3 | 14.8 | 1.5 | 1 | 0.131 | 0.356 | 0.266 | 0.258 | 0.0401 | 18.5 | 14 | 16.7 | 18 | 28.7 |
| CC(C)[C@@H](C)/C=C/[C@@H](C)[C@H]1CC[C@H]2/C(=C/C=C3\C[C@@H](O)CC[C@@H]3C)CCC[C@]12C [dihydrotachysterol] | 108 | 96 | 100 | 104 | 103 | 97.4 | 99.7 | 97.7 | 99.6 | 97.7 | 92.8 | 94.3 | 95.8 | 93.2 | 106 | 104 | 93.1 | 101 | 99.3 | 100 | 101 | 100 | 98.1 | 102 | 110 | > 10 | > 10 | > 10 | > 10 | > 10 | 0 | 0 | 0 | 0 | 0 |
| CN(C)CC/C=C1\c2ccccc2CSc2ccccc21 [dosulepin] | 94.1 | 108 | 100 | 117 | 107 | 90.7 | 104 | 101 | 89.3 | 87 | 111 | 93.5 | 94.1 | 92.6 | 79.9 | 90.7 | 97.5 | 96.4 | 101 | 96.6 | 93.4 | 97.3 | 104 | 96.5 | 92.7 | > 10 | > 10 | > 10 | > 10 | > 10 | 0 | 0.6 | 0.9 | 0 | 0 |
| NC(N)=Nc1nc(CSCCN/C=N/S(=O)(=O)c2ccc(Br)cc2)cs1 [ebrotidine] | 97.8 | 102 | 95 | 99.5 | 99.9 | 96 | 101 | 94.8 | 101 | 93.3 | 98.2 | 97.6 | 112 | 93.4 | 86.5 | 100 | 103 | 98.6 | 106 | 98.9 | 88.7 | 91.8 | 97.7 | 90.6 | 105 | > 10 | > 10 | > 10 | > 10 | > 10 | 0 | 0 | 0.5 | 0 | 0 |
| CCc1cn([C@H]2C[C@H](O)[C@@H](CO)O2)c(=O)[nH]c1=O [edoxudine] | 89.6 | 93.6 | 99.9 | 88.2 | 99.5 | 102 | 95.6 | 101 | 97 | 99.1 | 93.8 | 88.3 | 98.6 | 87.4 | 85.8 | 102 | 101 | 98.8 | 98.8 | 95.3 | 102 | 101 | 98 | 96 | 92.4 | > 10 | > 10 | > 10 | > 10 | > 10 | 0 | 0 | 0 | 0 | 0 |
| COc1ccc(CN(C(=O)[C@@H](N)Cc2c(C)cc(C(N)=O)cc2C)[C@@H](C)c2ncc(-c3ccccc3)[nH]2)cc1C(=O)O [eluxadoline] | 94.1 | 98.2 | 97.6 | 98.5 | 113 | 96.6 | 105 | 95.1 | 118 | 101 | 99.6 | 95.4 | 97.1 | 99.9 | 105 | 91.5 | 98.3 | 96.1 | 100 | 98 | 104 | 101 | 94.5 | 98.2 | 103 | > 10 | > 10 | > 10 | > 10 | > 10 | 0 | 0 | 0 | 0 | 0 |
| CCCn1c(=O)[nH]c(=O)c2nc[nH]c21 [enprofylline] | 104 | 100 | 99.5 | 104 | 95.5 | 105 | 96.9 | 95.6 | 108 | 109 | 97.4 | 110 | 100 | 95.9 | 88.2 | 104 | 99.1 | 98.9 | 97.6 | 104 | 97.6 | 98.3 | 91.1 | 94.7 | 94.5 | > 10 | > 10 | > 10 | > 10 | > 10 | 0 | 0 | 0.2 | 0 | 0 |
| CCOC(=O)[C@@H](C)Oc1ccc(Oc2nc3ccc(Cl)cc3o2)cc1 [fenoxaprop-p-ethyl] | 102 | 100 | 103 | 101 | 97.2 | 105 | 99 | 113 | 110 | 112 | 97.9 | 102 | 103 | 101 | 108 | 101 | 97.9 | 97.3 | 101 | 99.8 | 96.8 | 92.2 | 93.8 | 101 | 115 | > 10 | > 10 | > 10 | > 10 | > 10 | 0 | 0 | 0 | 0 | 0 |
| CS(=O)(=O)c1ccc([C@@H](O)[C@@H](CF)NC(=O)C(Cl)Cl)cc1 [florfenicol] | 109 | 99.9 | 107 | 97.1 | 96 | 93.7 | 90.8 | 86.2 | 103 | 98.8 | 107 | 91 | 115 | 93.1 | 48 | 99.9 | 96.2 | 99.1 | 98.3 | 99.5 | 100 | 104 | 95.9 | 104 | 95.2 | > 10 | > 10 | 2.11 | > 10 | > 10 | 0 | 0 | 3.9 | 0 | 0 |
| Nc1nc(F)nc2c1ncn2[C@@H]1O[C@H](CO)[C@@H](O)[C@@H]1O [fludarabine] | 94.1 | 104 | 102 | 99.9 | 102 | 111 | 88.9 | 95.2 | 87.6 | 87.5 | 103 | 95.6 | 95.2 | 95.6 | 79.4 | 98.8 | 102 | 98.6 | 102 | 103 | 93.9 | 95.2 | 92.8 | 99.4 | 101 | > 10 | > 10 | > 10 | > 10 | > 10 | 0 | 0.7 | 1.1 | 0 | 0 |
| C[C@]12CCC(=O)C(O)=C1CC[C@@H]1[C@@H]2CC[C@]2(C)C(=O)CC[C@@H]12 [formestane] | 114 | 96.9 | 95 | 105 | 117 | 98.7 | 96.1 | 91.4 | 93.8 | 93.3 | 117 | 111 | 108 | 112 | 98.6 | 102 | 98.2 | 102 | 95.3 | 105 | 97.8 | 92.4 | 86.7 | 103 | 104 | > 10 | > 10 | > 10 | > 10 | > 10 | 0 | 0 | 0 | 0 | 0 |
| C[C@]12CC[C@@H]3c4ccc(O)cc4C[C@@H](CCCCCCCCC[S+]([O-])CCCC(F)(F)C(F)(F)F)[C@H]3[C@@H]1CC[C@@H]2O (stereo not given in full) [fulvestrant] | 104 | 107 | 102 | 110 | 85.4 | 96.7 | 114 | 104 | 90.2 | 92.7 | 100 | 102 | 96.8 | 98 | 86.7 | 105 | 110 | 102 | 103 | 88.7 | 100 | 102 | 100 | 96.9 | 99.6 | > 10 | > 10 | > 10 | > 10 | > 10 | 0.1 | 0 | 0.3 | 0 | 0 |
| CCC(C/C=C/c1ccccc1)(c1ccccc1)N(C)CC1CC1 (stereo not given) [igmesine] | 95.4 | 97 | 95.2 | 102 | 103 | 99 | 104 | 96.8 | 102 | 97.8 | 102 | 105 | 101 | 102 | 96.8 | 94.7 | 99 | 100 | 101 | 102 | 98.8 | 97.7 | 94.2 | 98.1 | 107 | > 10 | > 10 | > 10 | > 10 | > 10 | 0 | 0 | 0 | 0 | 0 |
